The values that follow come from PubChem BioAssay AID342 (DTP/NCI, 2004).

Molecules are shown by their SMILES. “And” between values parts separate entries of the source, which are not always exact repeats. Equal values may be shown once.

This experiment relates to Swiss mice, Sarcoma 180 sc, mean tumor weight T/C. The experiment in a line: NCI In Vivo Anticancer Drug Screen. Data for tumor model Sarcoma 180 (subcutaneous) in Swiss mice. The settings on record: endpoint: mean tumor weight, higher = larger tumour. A digest of the protocol: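 Readout is the ratio of treated-group measurement to vehicle-control measurement (T/C), based on survival or tumor size in mice carrying transplanted tumors.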

Where [1] appears, read: dose: 31.0 mg/kg/injection, schedule: Q01DX007 (ip), vehicle: carboxymethylcellulose (CMC).
The mark [2] stands for this setting: dose: 62.0 mg/kg/injection, schedule: Q01DX007 (ip), vehicle: carboxymethylcellulose (CMC).
Where [3] appears, read: dose: 125.0 mg/kg/injection, schedule: Q01DX007 (ip), vehicle: carboxymethylcellulose (CMC).
Setting [4] is: dose: 0.5 mg/kg/injection, schedule: Q01DX007 (ip), vehicle: saline.

By T/C is commonly meant the result in the treated group divided by that in the control group, in per cent. For `CN(C)[C@@H]1C(=O)C(C(=O)NCc2nc3[nH]cnc(=S)c3[nH]2)=C(O)[C@@]2(O)C(=O)C3=C(O)c4c(O)cccc4[C@@](C)(O)[C@H]3C[C@@H]12`, the T/C is 71 % of control (dose: 14.0 mg/kg/injection, schedule: Q01DX007 (ip), vehicle: carboxymethylcellulose (CMC)); 58 % of control (dose: 28.0 mg/kg/injection, schedule: Q01DX007 (ip), vehicle: carboxymethylcellulose (CMC)); 54 % of control and 62 % of control (dose: 56.0 mg/kg/injection, schedule: Q01DX007 (ip), vehicle: carboxymethylcellulose (CMC)); 29 % of control (dose: 224.0 mg/kg/injection, schedule: Q01DX007 (ip), vehicle: carboxymethylcellulose (CMC)).
Take `C[C@]12CC[C@@H]3c4ccc(OC(=O)c5ccccc5)cc4CC[C@H]3[C@@H]1CC[C@@H]2O`: the T/C (dose: 125.0 mg/kg/injection, schedule: Q01DX007 (sc), vehicle: steriod suspending solution) was 47 % of control; the T/C (dose: 250.0 mg/kg/injection, schedule: Q01DX007 (sc), vehicle: steriod suspending solution) is 55 % of control; the T/C (dose: 400.0 mg/kg/injection, schedule: Q01DX007 (sc), vehicle: steriod suspending solution) is 58 % of control and 83 % of control; the T/C (dose: 666.0 mg/kg/injection, schedule: Q01DX007 (sc), vehicle: steriod suspending solution) is 59 % of control and 62 % of control.
As to `CCCCCCCCCCCCCCCCCCNC(=S)N/N=C/c1ccc(Cl)cc1Cl`, the T/C (dose: 65.0 mg/kg/injection, schedule: Q#A X014 (ip), vehicle: methylcellulose (MC)) is 35 % of control and 53 % of control.
Turning to `CN(N=Nc1n[nH]nc1C(N)=O)c1ccccc1`, the T/C runs as follows: under setting [1], 65 % of control; under setting [2], 73 % of control; under setting [3], 70 % of control.
In the case of `Nc1nc(Cl)ncc1F`, the T/C (dose: 25.0 mg/kg/injection, schedule: Q01DX007 (ip), vehicle: saline) was 101 % of control; the T/C (dose: 50.0 mg/kg/injection, schedule: Q01DX007 (ip), vehicle: saline) was 83 % of control; the T/C (dose: 100.0 mg/kg/injection, schedule: Q01DX007 (ip), vehicle: saline) is 92 % of control.
For `C=C(C)C(=O)O[C@H]1CC2=C[C@@H](C[C@@]3(C)O[C@@H]3[C@H]3OC(=O)C(=C)[C@@H]31)OC2=O`, the T/C (dose: 2.5 mg/kg/injection, schedule: Q01DX007 (ip), vehicle: saline) is 105 % of control; the T/C (dose: 5.0 mg/kg/injection, schedule: Q01DX007 (ip), vehicle: saline) is 106 % of control; the T/C (dose: 10.0 mg/kg/injection, schedule: Q01DX007 (ip), vehicle: saline) is 100 % of control.
Consider `O=C1Nc2ccccc2/C1=C/c1cccnc1`, for which the T/C (dose: 62.5 mg/kg/injection, schedule: Q01DX007 (ip), vehicle: carboxymethylcellulose (CMC)) is 100 % of control; the T/C under setting [3] is 79 % of control; the T/C (dose: 250.0 mg/kg/injection, schedule: Q01DX007 (ip), vehicle: carboxymethylcellulose (CMC)) is 43 % of control.
As for `CCN(CC)P(=S)(N1CC1)N1CC1`, the T/C was 3 % of control (dose: 25.0 mg/kg/injection, schedule: Q01DX007 (ip), vehicle: other); 31 % of control (dose: 50.0 mg/kg/injection, schedule: Q01DX007 (ip), vehicle: other); 1 % of control (dose: 100.0 mg/kg/injection, schedule: Q01DX007 (ip), vehicle: other); 25 % of control (dose: 220.0 mg/kg/injection, schedule: Q01DX007 (ip), vehicle: saline).
As to `CN1CCC23c4c5ccc(O)c4OC2C(O)C=CC3C1C5` (configuration not stated), the T/C runs as follows: (dose: 62.0 mg/kg/injection, schedule: Q01DX007 (ip), vehicle: saline) 90 % of control; (dose: 125.0 mg/kg/injection, schedule: Q01DX007 (ip), vehicle: saline) 99 % of control; (dose: 250.0 mg/kg/injection, schedule: Q01DX007 (ip), vehicle: saline) 48 % of control.
Turning to `CSCS(=O)C[C@H](CO)NC(=O)/C=C/c1c(C)[nH]c(=O)[nH]c1=O` (some centres not stated), the T/C is, setting by setting: (dose: 0.03 mg/kg/injection, schedule: Q#A X014 (ip), vehicle: saline) 64 % of control; (dose: 0.06 mg/kg/injection, schedule: Q01DX007 (ip), vehicle: saline) 81 % of control; (dose: 0.06 mg/kg/injection, schedule: Q01DX007 (sc), vehicle: saline) 107 % of control; (dose: 0.06 mg/kg/injection, schedule: Q#A X014 (ip), vehicle: saline) 54 % of control; (dose: 0.12 mg/kg/injection, schedule: Q#A X014 (ip), vehicle: saline) 44 % of control; (dose: 0.13 mg/kg/injection, schedule: Q01DX007 (ip), vehicle: saline) 50 % of control. Besides, the T/C is 81 % of control (dose: 0.13 mg/kg/injection, schedule: Q01DX007 (sc), vehicle: saline); 88 % of control (dose: 0.19 mg/kg/injection, schedule: Q03DX003 (ip), vehicle: saline); 39 % of control (dose: 0.25 mg/kg/injection, schedule: Q01DX007 (ip), vehicle: saline); 87 % of control (dose: 0.25 mg/kg/injection, schedule: Q01DX007 (iv), vehicle: saline); 97 % of control (dose: 0.25 mg/kg/injection, schedule: Q01DX007 (oral), vehicle: saline); 78 % of control (dose: 0.25 mg/kg/injection, schedule: Q01DX007 (sc), vehicle: saline). Besides, the T/C runs as follows: (dose: 0.25 mg/kg/injection, schedule: Q#A X014 (ip), vehicle: saline) 42 % of control; (dose: 0.38 mg/kg/injection, schedule: Q03DX003 (ip), vehicle: saline) 76 % of control; (dose: 0.4 mg/kg/injection, schedule: Q#A X014 (ip), vehicle: carboxymethylcellulose (CMC)) 58 % of control; under setting [4], 32 % of control; (dose: 0.5 mg/kg/injection, schedule: Q01DX007 (iv), vehicle: saline) 86 % of control; (dose: 0.5 mg/kg/injection, schedule: Q01DX007 (oral), vehicle: saline) 106 % of control. Further, the T/C reads like this: (dose: 0.5 mg/kg/injection, schedule: Q01DX007 (sc), vehicle: saline) 17 % of control; (dose: 0.62 mg/kg/injection, schedule: Q#A X014 (ip), vehicle: carboxymethylcellulose (CMC)) 27 % of control; (dose: 0.75 mg/kg/injection, schedule: Q#A X014 (ip), vehicle: carboxymethylcellulose (CMC)) 20 % of control; (dose: 1.0 mg/kg/injection, schedule: Q01DX007 (iv), vehicle: saline) 58 % of control; (dose: 1.0 mg/kg/injection, schedule: Q01DX007 (oral), vehicle: saline) 59 % of control; (dose: 1.5 mg/kg/injection, schedule: Q03DX003 (ip), vehicle: saline) 89 % of control. Moreover, the T/C was 99 % of control (dose: 2.0 mg/kg/injection, schedule: Q01DX007 (oral), vehicle: saline); 79 % of control (dose: 62.5 mg/kg/injection, schedule: Q#A X014 (ip), vehicle: carboxymethylcellulose (CMC)); 74 % of control (dose: 125.0 mg/kg/injection, schedule: Q#A X014 (ip), vehicle: carboxymethylcellulose (CMC)).
With `CC(C)(S)C(N)C(=O)O` (configuration not stated), the T/C is, setting by setting: (dose: 500.0 mg/kg/injection, schedule: Q01DX007 (oral), vehicle: saline) 122 % of control; (dose: 1000.0 mg/kg/injection, schedule: Q01DX007 (oral), vehicle: saline) 118 % of control.
With `COc1ccc2c3c([nH]c2c1)[C@H]1C[C@H]2[C@H](C[C@@H](O)[C@H](OC)[C@H]2CO)CN1CC3`, the T/C runs as follows: under setting [4], 120 % of control; (dose: 1.0 mg/kg/injection, schedule: Q01DX007 (ip), vehicle: saline) 121 % of control; (dose: 2.0 mg/kg/injection, schedule: Q01DX007 (ip), vehicle: saline) 95 % of control; (dose: 4.0 mg/kg/injection, schedule: Q01DX007 (ip), vehicle: saline) 94 % of control; (dose: 8.0 mg/kg/injection, schedule: Q01DX007 (ip), vehicle: saline) 102 % of control; (dose: 16.0 mg/kg/injection, schedule: Q01DX007 (ip), vehicle: saline) 77 % of control. Besides, where the note is “dose: 32.0 mg/kg/injection, schedule: Q01DX007 (ip), vehicle: saline”, the T/C is 102 % of control.
On to `CN(C)N=Nc1n[nH]nc1C(N)=O`, for which the T/C was 70 % of control under setting [1], 84 % of control under setting [2] and 43 % of control under setting [3].
